# Test results from patent US20150335678A1, “METHOD OF ACTIVATING STEM CELLS IN AN ANIMAL AND THE USE OF CHLORINE DIOXIDE FOR PREPARING MEDICINES FOR ACTIVATING STEM CELLS IN AN ANIMAL” (priority 2012, published 2015).
# What was measured:
# [1] = system: scar; test: Patients with scar, topical solution with dimethyl sulfoxide (Example 13); type: in vivo, human; conditions: 20 patients with scar
# Description: The subjects consisted of 20 patients with scar, including 7 male and 13 female (average age: 33 years old.) There are five cases with burn scar, 7 cases with scars resulting from accidental injury, 5 cases with surgical scar, 3 cases with scar from skin disease. The average course of disease is about 3 years.
# Then the solution was immediately smeared over the scar, once a day for 10-15 days consecutively then stops administration. The second administration began 1-2 months after drug withdrawal of the first administration, once a day for consecutive 5-10 days.
# To observe the effects a month after first administration and second administration. The effects were measured according to pain, stiffness and hyperpigmentation around.
# specific criteria: obvious pain (+++), moderate pain (++), mild pain (+) no pain (−). stiffness of scar: can't sunken with hard pressing, (+++) can sunken with moderate pressing, (++), complete depression with mild pressing (+). Same character with normal skin (−). hyperpigmentation around: >2 cm, (+++), 1˜2 cm (++), <1 cm (+), 0 (−)
# Measurement of clinical effect: excellent: no pain, and the stiffness is the same to normal skin with no hyperpigmentation around. effective: the indicators of pain, stiffness and hyperpigmentation are (+)˜(++); ineffective: one of the indicators of pain, stiffness and hyperpigmentation is (+++).
# [2] = system: rat model of type II diabetes mellitus; test: Fasting blood-glucose in rat model of type II diabetes mellitus (Example 10); type: in vivo
# Experimental: The rat models of type II diabetes mellitus bought from Department of Medicine of Peking University were divided into group A and B randomly with 10 rats for each group. Group A was treatment group of activating agent of stem cells. Group B was control group of 0.9% sodium chloride of the same volume. The rats of group A were injected with 0.5 ml activating agent of stem cells at insulin injection site on day 0, same dosage of medicine were injected on day 7, day 14; The rats of group B were injected with 0.5 ml NS at hepatic artery at the same point-in-time, then calculate the blood sugar. The fasting blood-glucose of the rat model was checked on day 7, day 14, day 21 and day 28 respectively after the last injection. Table 20 is the results.
# [3] = system: nestin-positive cells (neural stem cells); test: Nestin-positive cells in the SVZ region, immunohistochemical stain; type: in vivo, Sprague-Dawley rats; conditions: for number of nestin-positive cells in the SVZ region (mean±SD): diluted solution via carotid artery once a day, ten days
# Experimental: Male Sprague-Dawley rats with the age of 12 weeks and weight of 250^˜280 g were used in the experiment after acclimating for a week.
# A middle cerebral artery occlusion model was first established in compliance with the method of Longa E Z et al. (Longa E Z, et al. Reversible middle cerebral artery occlusion without craniectomy in rats. Stroke 20:84-91, 1989). More specifically, 0.36 g/kg of 10% chloral hydrate was administered intraperitoneally to rats which had been fasted for 12 hours (although given free access to water) to anesthetize the rats. Next, a midline incision was made in the neck to expose the right common carotid artery. Then, the internal carotid artery and external carotid artery were separated, the posterior carotid artery, which is a branch of the external carotid artery, and the thyroidea arteria were coagulated and severed, the external carotid artery was ligated at the branch of the lingual artery and maxillary artery, a small puncture was formed in the external carotid artery, 4-0 Nylon suture was passed through the common carotid artery from the puncture, and gradually inserted into the internal carotid artery until there was resistance. The length of the Nylon suture was about 18^˜20 mm from the branch of the common carotid artery. As a result of occluding the middle cerebral artery with Nylon suture, an ischemic state was applied for 2 hours to create a middle cerebral artery occlusion model.
# A cerebral ischemia/reperfusion injury model was established by removing the Nylon suture from the middle cerebral artery of the occlusion model and following reperfusion of blood.
# The first solution was a mixed solution made of sodium chlorite with the concentration of 7.47% and sodium chloride with the concentration of 1.59% with deionized water; the second solution was made of citric acid with the concentration of 16.7% with deionized water. Same volume of solutions were taken out from different vessels with different volumes and mixed up. Allow the solution to mix for 3-5 minutes and dilute it five times with normal saline, and then filter it with 0.22 μm filter membrane of double-deck. The solution was immediately put into injector. The solution was prepared once being used.
# Treatment group (120 rats): A cerebral ischemia/reperfusion injury model was established for the rats already. To administer chlorine dioxide solution everytime that prepared from procedure (3) through carotid artery after the second day the model has established, once a day for total ten days.
# Ten rats of each group were autopsied on day 7, 14 and 21 after the model established, respectively (total animals are 30 rats from each group). After preparation of tissue specimens, the neural stem cells were counted under a microscope.
# More specifically, rat frozen brain sections were prepared on day 7, 14 and 21 after the model established, and the presence of nestin-positive cells in the subventricular zone (SVZ) was measured by immunohistochemical stain using the marker of nestin expressed on the neural stem cells. The presence of nestin-positive cells was analyzed using mouse anti-rat nestin monoclonal antibody.
# BRt(%)=(Bt−St)/(Mt−St)×100
# [4] = system: CD34-positive/CD31-positive mononuclear cells; test: CD34-positive/CD31-positive mononuclear cells in peripheral blood of lower limb DVT patients, flow cytometry; type: in vivo, human; conditions: before administration 0.28 ± 0.30, diluted solution 10 ml/body/day femoral artery puncture, 14 days
# Description: The subjects consisted of 14 male and 6 female lower limb DVT patients with the unilateral limb suffer from the illness, aged from 59 to 76 years old (average age: 67.2 years old). The purpose of the clinical test was explained to all subjects and their consent was obtained before conducting the clinical test.
# The first solution was a mixed solution made of sodium chlorite with the concentration of 7.47% and sodium chloride with the concentration of 1.59% with deionized water; the second solution was made of citric acid with the concentration of 16.7% with deionized water. Same volume of solutions were taken out from different vessels with different volumes and mixed up. […]
# Five ml of peripheral blood was collected from the median cubital vein of the forearm of each patient using low molecular weight heparin anticoagulant before administration (before initial administration) and on day 7 and 14 after administration, and the collected blood was immediately stored at 4° C. and measured within 6 hours after collection. […]
# CD34-positive mononuclear cells/CD31-positive mononuclear cells were isolated by double immunofluorescent using flow cytometry. […] Next, CD34/CD31-positive mononuclear cells were isolated and counted by flow cytometry. The ratio (%) of CD34/CD 31-positive mononuclear cells among the mononuclear cells was calculated according to the following formula. […]
# [5] = a month after first administration
# [6] = a month after second administration
structure (smiles),measurement,setting,value
"[O][Cl+][O-] [chlorine dioxide solution, chlorine dioxide]",ineffective (%),[1]; [5],25%
same,ineffective (No.),[1]; [5],5
same,total efficiency (%),[1]; [5],30%
same,total efficiency (No.),[1]; [5],6
same,Efficiency rate (No.),"[1]; a month after first administration, NaClO2 10%/NaCl 2.5% + citric acid 20% 1:1, DMSO 1:1, smeared once a day 10-15 days",9
same,Efficiency rate (%),"[1]; a month after first administration, topical with DMSO",45%
same,Efficiency rate (No.),"[1]; a month after second administration (once a day 5-10 days, 1-2 months after the first)",15
same,Efficiency rate (%),[1]; [6],75%
same,ineffective (No.),[1]; [6],0
same,total efficiency (%),[1]; [6],25%
same,total efficiency (No.),[1]; [6],5
same,"MBG (fasting blood-glucose), ±SD","[2]; Day 7 after administration, Group A n=10, Day 0 17.3 ± 0.4, NS group 18.3 ± 2.4, NaClO2 4%/NaCl 1% + citric acid 8% 1:1, 0.5 ml injected day 0, 7, 14",9.3 ± 3.5 mmol/L
same,"MBG (fasting blood-glucose), ±SD","[2]; Day 14 after administration, Day 0 17.3 ± 0.4, NS group 17.2 ± 1.6, 0.5 ml injected day 0, 7, 14",4.3 ± 1.1 mmol/L
same,"MBG (fasting blood-glucose), ±SD","[2]; Day 28 after administration, Day 0 17.3 ± 0.4, NS group 17.9 ± 2.3, 0.5 ml injected day 0, 7, 14",3.1 ± 1.2 mmol/L
same,FBG levels of rats in treatment group,[2]; control group remains unchanged,become normal after 14 days
same,side effects,[2]; rat model of type II diabetes mellitus,few or no side effects
same,"MBG (fasting blood-glucose), ±SD","[2]; rat, in vivo",3.5 ± 1.3 mmol/L
same,"BRt: nestin-positive cells in treatment group relative to model group = 100%, (Bt-St)/(Mt-St)x100",[3]; Day 7,157.4%
same,number of nestin-positive cells in the SVZ region (mean±SD),"[3]; Day 7 after model established, model group 210.5 ± 22.3, sham 45.6 ± 5.69",305.2 ± 30.6 No. cells/mm2
same,"BRt: nestin-positive cells in treatment group relative to model group = 100%, (Bt-St)/(Mt-St)x100",[3]; Day 14,150.2%
same,number of nestin-positive cells in the SVZ region (mean±SD),"[3]; Day 14, model group 74.5 ± 13.4, sham 13.2 ± 1.64",105.3 ± 15.4 No. cells/mm2
same,"BRt: nestin-positive cells in treatment group relative to model group = 100%, (Bt-St)/(Mt-St)x100",[3]; Day 21,138.5%
same,number of nestin-positive cells in the SVZ region (mean±SD),"[3]; Day 21, model group 46.2 ± 6.31, sham 1.99 ± 1.09",63.2 ± 7.55 No. cells/mm2
same,"CD34-Positive/CD31-Positive Mononuclear Cells (ratio among mononuclear cells, mean±SD)","[4]; Day 7 after administration, n=20",0.85 ± 0.51 %
same,"CD34-Positive/CD31-Positive Mononuclear Cells (ratio among mononuclear cells, mean±SD)","[4]; Day 14 after administration, n=15",1.1 ± 0.65 %
